Where a name gives a salt, the structure may show the parent alone. Read-outs that look alike come from different tables or passages of the source.
Assays:
[1] = target: T1, delta receptors (Mus musculus, UniProt P32300); format: cell-based
T1 construct: The vas deferens from Swiss-Webster mice (30-35 g) were prepared as described by Hughes et al; from tissue; host or cells: mouse vas deferens (Swiss-Webster)

[2] = test system: mu receptors; format: cell-based, guinea pig
[3] = test system: electrically stimulated mouse vas deferens; experiment: tissue or blood; format: cell-based
[4] = test system: electrically stimulated guinea pig ileum; experiment: tissue or blood; format: cell-based
[5] = target: T2, kappa receptors (Cavia porcellus, UniProt P41144); format: cell-based, guinea pig
T2 construct: The longitudinal muscle with the myenteric plexus attached was gently separated from the underlying circular muscle; from tissue; host or cells: guinea pig ileum longitudinal muscle with myenteric plexus

[6] = target: kappa3 receptors; format: binding, guinea pig; conditions: read-out: Ki κ3 [^3H]NalBzoH
[7] = test system: κ2 sites; format: binding, guinea pig
[8] = target: T3, delta receptors (Cavia porcellus, UniProt A0A286XTF2); experiment: biochemical; format: binding, guinea pig
T3 construct: The brains were then homogenized in 50 mM Tris HCl, buffer pH 7.7, using a Polytron; from tissue; host or cells: guinea pig brain homogenate (membrane pellet)

[9] = target: mu opioid receptors (Cavia porcellus, UniProt A0ACM8Q262); format: binding, guinea pig; conditions: read-out: Ki μ [^3H]DAMGO
[10] = Mus musculus, read-out: Mouse Vas Deferens IC50 (nM)
[11] = Cavia porcellus, read-out: Guinea Pig Ileum IC50 (nM)
[12] = read-out: Mouse Vas Deferens IC50
[13] = read-out: Guinea Pig Ileum IC50
[14] = read-out: IC50 (nM), Mouse Vas Deferens
[15] = read-out: IC50 (nM), Guinea Pigs Ileum

T3 sequence (A0A286XTF2 1-366): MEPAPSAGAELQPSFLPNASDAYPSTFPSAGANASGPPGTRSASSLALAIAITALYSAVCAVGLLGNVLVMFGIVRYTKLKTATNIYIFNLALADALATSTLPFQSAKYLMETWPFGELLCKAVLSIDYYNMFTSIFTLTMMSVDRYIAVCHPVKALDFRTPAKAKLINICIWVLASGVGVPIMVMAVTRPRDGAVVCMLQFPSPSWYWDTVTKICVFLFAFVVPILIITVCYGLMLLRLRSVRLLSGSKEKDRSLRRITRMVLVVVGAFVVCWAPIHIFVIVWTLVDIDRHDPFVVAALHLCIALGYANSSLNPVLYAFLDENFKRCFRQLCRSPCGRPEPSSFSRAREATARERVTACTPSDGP
mu opioid receptors, sequence (A0ACM8Q262 1-400): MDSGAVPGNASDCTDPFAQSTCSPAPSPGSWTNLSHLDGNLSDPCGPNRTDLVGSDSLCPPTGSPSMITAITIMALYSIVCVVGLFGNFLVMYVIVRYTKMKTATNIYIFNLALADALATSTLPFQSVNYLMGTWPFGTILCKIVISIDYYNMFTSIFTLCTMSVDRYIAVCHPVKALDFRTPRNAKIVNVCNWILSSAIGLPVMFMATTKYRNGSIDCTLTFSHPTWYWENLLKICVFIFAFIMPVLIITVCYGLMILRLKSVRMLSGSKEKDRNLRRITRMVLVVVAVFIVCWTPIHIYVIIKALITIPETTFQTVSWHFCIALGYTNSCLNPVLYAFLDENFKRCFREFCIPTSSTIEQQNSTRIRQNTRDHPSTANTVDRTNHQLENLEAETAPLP
T1 sequence (P32300 whole entry): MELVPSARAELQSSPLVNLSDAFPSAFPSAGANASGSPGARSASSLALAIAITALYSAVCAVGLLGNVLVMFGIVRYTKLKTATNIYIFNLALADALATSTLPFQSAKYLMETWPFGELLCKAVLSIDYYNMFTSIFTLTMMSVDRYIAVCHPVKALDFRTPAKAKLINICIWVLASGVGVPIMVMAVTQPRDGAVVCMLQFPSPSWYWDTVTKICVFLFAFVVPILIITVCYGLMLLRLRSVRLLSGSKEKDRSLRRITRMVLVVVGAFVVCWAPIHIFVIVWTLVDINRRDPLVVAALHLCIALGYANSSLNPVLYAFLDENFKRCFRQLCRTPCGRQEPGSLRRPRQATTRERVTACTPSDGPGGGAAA
T2 sequence (P41144 whole entry): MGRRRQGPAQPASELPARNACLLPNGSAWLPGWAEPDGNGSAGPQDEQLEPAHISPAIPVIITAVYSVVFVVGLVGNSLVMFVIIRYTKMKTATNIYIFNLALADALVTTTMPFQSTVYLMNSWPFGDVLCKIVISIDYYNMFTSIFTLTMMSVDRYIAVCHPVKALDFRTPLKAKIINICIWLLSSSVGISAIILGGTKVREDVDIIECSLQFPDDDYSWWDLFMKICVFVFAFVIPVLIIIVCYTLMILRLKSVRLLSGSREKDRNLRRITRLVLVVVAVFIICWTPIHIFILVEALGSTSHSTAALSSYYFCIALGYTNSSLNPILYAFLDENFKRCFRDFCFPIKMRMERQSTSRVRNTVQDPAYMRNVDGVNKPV

Row | Molecule | Mouse Vas Deferens DR with Naltrindole [1] | Guinea Pig Ileum DR with CTAP [2] | Guinea Pig Ileum Ke of CTAP [2] | Ki [6] | IC50 [7] | IC50 [4, 13] | also measured
1 | COc1ccc2c3c1O[C@H]1C(=O)CC[C@@]4(O)[C@@H](C2)N(C)CC[C@]314 [Oxycodone] | 0.79 | 2.30 | 78.66 |  |  |  | Guinea Pig Ileum Ratio (CTAP) [2]: 0.322; IC50 [3, 10]: 6330 nM; IC50 [4, 11]: 324 nM; Guinea Pig Ileum DR with Nor-BNI [5]: 1.45; Guinea Pig Ileum Ke of Nor-BNI [5]: 45.84; Guinea Pig Ileum Ratio (Nor-BNI) [5]: 0.001
2 | CC(C)C[C@@H](NC(=O)[C@H](Cc1ccccc1)NC(=O)CNC(=O)[C@@H](C)NC(=O)[C@@H](N)Cc1ccc(O)cc1)C(=O)O [DADLE-OH] |  | 4.33 | 30.58 | 692 nM | > 10000 nM | 13.4 nM | IC50 [3, 12]: 1.6 nM; Ki [8]: 0.3 nM; Guinea Pig Ileum DR with Nor-BNI [5]: 1.53; Guinea Pig Ileum Ke of Nor-BNI [5]: 38.13
3 | 3-O-benzoyl-7,8-dihydromorphine-6-O-sulfate [NIDA # 20,275] |  | 4.03 ± 1.51 | 37.64 ± 18.74 |  | > 10000 nM | 649 ± 131 nM | Ki [9]: 61.8 nM; Ki ([8]; read-out: Ki δ [^3H]Cl-DPDPE): 1600 nM
4 | Dynorphin (1-13)-OH |  |  |  | 15.4 nM | 180 nM |  | 
5 | Dynorphin (1-8) |  |  |  | 12.9 nM | 1760 nM |  | DR with Naltrindole [1]: 2.77; Ke of Naltrindole [1]: 0.64; Ratio (after Ke of Naltrindole) [1]: 0.033; DR with CTAP [2]: 0.98; IC50 [3, 14]: 56.4 nM; IC50 [4, 15]: 71.8 nM; DR with Nor-BNI [5]: 18.44; Ke of Nor-BNI [5]: 1.21; Ratio (after Ke of Nor-BNI) [5]: 0.050
6 | CN1CC[C@]23c4c5ccc(O)c4O[C@H]2[C@@H](O)CC[C@H]3[C@H]1C5 [Dihydromorphine, 7,8-Dihydromorphine] |  | 12.46 | 17.46 |  |  |  | IC50 [3, 10]: 8.11 nM; IC50 [4, 11]: 42.4 nM
7 | Met-Enkephalin | 13.63 | 5.08± | 24.50 | 277 nM | > 10000 nM | 27.4 nM | Mouse Vas Deferens Ke of Naltrindole [1]: 0.082; IC50 [3, 12]: 1.52 nM
8 | (−) Cyclazocine |  | 1.00 ± 0.00 |  | 0.2 nM | 17.3 nM | 1.05 nM | Ki [9]: 0.1 nM
9 | CN1CC[C@]23c4c5ccc(OS(=O)(=O)O)c4O[C@H]2[C@@H](O)C=C[C@H]3[C@H]1C5 [NIDA # 20,268, morphine-3-O-sulfate] |  |  |  | 1690 nM | > 10000 nM |  | Ki [8]: > 10000 nM
10 | C[N+]1(C)CC[C@]23c4c5ccc(OC(=O)c6ccccc6)c4O[C@H]2[C@@H](OS(=O)(=O)[O-])C=C[C@H]3[C@H]1C5 [NIDA # 20,274, 3-O-Benzoyl-N-methylmorphinium-6-O-sulfate] |  |  |  | > 10000 nM | > 10000 nM |  | Ki [8]: > 10000 nM; inhibition at 100 µM ([4]; Cavia porcellus, read-out: Guinea pig ileum maximum inhibition): 38%
11 | Leu-Enkephalin | 28.07 | 4.63 | 29.38 | 1670 nM | > 10000 nM | 87.3 nM | Mouse Vas Deferens Ke of Naltrindole [1]: 0.038; Mouse Vas Deferens Ratio (Naltrindole) [1]: 0.577; Guinea Pig Ileum Ratio (CTAP) [2]: 0.659; IC50 [3, 12]: 7.38 nM; Guinea Pig Ileum DR with Nor-BNI [5]: 1.94; Guinea Pig Ileum Ke of Nor-BNI [5]: 21.41; Guinea Pig Ileum Ratio (Nor-BNI) [5]: 0.002
12 | Dynorphin(1-9)-OH | 5.71 | 1.13 | 357.14 | 20.2 nM | 324 nM | 4.69 nM | Mouse Vas Deferens Ke of Naltrindole [1]: 0.281; IC50 [3, 12]: 12.2 nM
13 | C[C@@H](NC(=O)[C@@H](N)Cc1ccc(O)cc1)C(=O)NCC(=O)N(C)[C@@H](Cc1ccccc1)C(=O)NCCO [DAMGO, [D-Ala^2,N-Me-Phe^4,Gly-ol^5]-enkephalin] | 0.93 | 4.98 | 25.31 |  |  | 8.25 nM | Guinea Pig Ileum Ratio (CTAP) [2]: 1.000; IC50 [3, 12]: 178 nM; Guinea Pig Ileum DR with Nor-BNI [5]: 1.74; Guinea Pig Ileum Ke of Nor-BNI [5]: 27.67; Guinea Pig Ileum Ratio (Nor-BNI) [5]: 0.002
14 | Oc1ccc2c3c1O[C@H]1[C@@H](O)C=C[C@H]4[C@@H](C2)NCC[C@@]341 [Normorphine] | 1.06 | 3.02 | 50.25 |  |  |  | Mouse Vas Deferens Ke of Naltrindole [1]: 8.38 ± 0; Mouse Vas Deferens Ratio (Naltrindole) [1]: 0.0025; Guinea Pig Ileum Ratio (CTAP) [2]: 0.500; IC50 [3, 10]: 512 nM; IC50 [4, 11]: 47.3 nM; Guinea Pig Ileum DR with Nor-BNI [5]: 1.90; Guinea Pig Ileum Ke of Nor-BNI [5]: 26.47; Guinea Pig Ileum Ratio (Nor-BNI) [5]: 0.002
15 | CCC12CCN(CC3(O)CC3)C(Cc3ccc(O)cc31)C2(C)C (single isomer, unassigned; (-)) [(−)Bremazocine] |  |  |  | 0.1 nM | 2.2 nM |  | DR with CTAP [2]: 0.83; Ki [9]: 0.1 nM; Ki ([8]; read-out: Ki δ [^3H]Cl-DPDPE): 0.3 nM; IC50 [4, 15]: 0.067 nM
16 | CCC12CCN(CC3(O)CC3)C(Cc3ccc(O)cc31)C2(C)C (single isomer, unassigned; (+)) [(+)Bremazocine] |  |  |  | 0.1 nM | 11.2 nM |  | Ki [9]: 0.1 nM; Ki ([8]; read-out: Ki δ [^3H]Cl-DPDPE): 0.7 nM
17 | COC(=O)/C=C/C(=O)N[C@@H]1CC[C@@]2(O)[C@H]3Cc4ccc(O)c5c4[C@@]2(CCN3CC2CC2)[C@H]1O5 [β-FNA-HCl] |  |  |  | 0.8 nM | 66.5 nM |  | Ki [9]: 0.4 nM
18 | Dynorphin (1-13)-NH2 |  |  |  | 4.1 nM | 24.6 nM |  | 
19 | C=CCN1CC[C@]23c4c5ccc(O)c4O[C@H]2[C@@H](O)C=C[C@H]3[C@H]1C5 [Nalorphine] |  | 0.90 |  |  |  |  | IC50 [4, 11]: 29.2 nM; Guinea Pig Ileum DR with Nor-BNI [5]: 643.9; Guinea Pig Ileum Ke of Nor-BNI [5]: 0.03
20 | CC1(C)SSC(C)(C)[C@@H](NC(=O)[C@@H](N)Cc2ccc(O)cc2)C(=O)NCC(=O)N[C@@H](Cc2ccc(Cl)cc2)C(=O)N[C@H]1C(=O)O [DPDPE-Cl] |  |  |  | 1030 nM | > 10000 nM |  | Ki ([8]; read-out: Ki δ [^3H]Cl-DPDPE): 0.3 nM
21 | Dynorphin B |  |  |  |  |  |  | DR with CTAP [2]: 1.08; Ke of CTAP [2]: 344.83; IC50 [3, 14]: 39.1 nM; IC50 [4, 15]: 4.4 nM
22 | Dynorphin B-OH |  |  |  | 14.2 nM | 70 nM |  | 
23 | 3-O-Acetyl-7,8-dihydromorphine-6-O-sulfate [NIDA # 20,265] | 0.924 ± 0.64 | 6.03 ± 0.97 | 20.25 ± 3.92 |  | > 10000 nM | 37.7 ± 6.55 nM | Ki [9]: 13.7 nM; IC50 [3, 12]: 1110 nM; Ki ([8]; read-out: Ki δ [^3H]Cl-DPDPE): 325 nM
24 | CC[C@H](C)[C@H](NC(=O)[C@H](C)NC(=O)[C@H](CC(N)=O)NC(=O)[C@H](CCCCN)NC(=O)[C@H](Cc1ccccc1)NC(=O)[C@H](CC(C)C)NC(=O)[C@@H](NC(=O)[C@@H](NC(=O)[C@H](CC(C)C)NC(=O)[C@@H]1CCCN1C(=O)[C@@H](NC(=O)[C@H](CCC(N)=O)NC(=O)[C@H](CO)NC(=O)[C@H](CCCCN)NC(=O)[C@H](CCC(=O)O)NC(=O)[C@H](CO)NC(=O)[C@@H](NC(=O)[C@H](CCSC)NC(=O)[C@H](Cc1ccccc1)NC(=O)CNC(=O)CNC(=O)[C@@H](N)Cc1ccc(O)cc1)[C@@H](C)O)[C@@H](C)O)C(C)C)[C@@H](C)O)C(=O)N[C@H](C(=O)N[C@@H](CCCCN)C(=O)N[C@@H](CC(N)=O)C(=O)N[C@@H](C)C(=O)N[C@@H](Cc1ccc(O)cc1)C(=O)N[C@@H](CCCCN)C(=O)N[C@@H](CCCCN)C(=O)NCC(=O)N[C@@H](CCC(=O)O)C(=O)O)[C@@H](C)CC [β-Endorphin-OH] | 7.98 | 5.86 | 20.87 | 14.5 nM | 2050 nM | 59.4 nM | Mouse Vas Deferens Ke of Naltrindole [1]: 0.156 ± 0.05; IC50 [3, 12]: 68 nM; Guinea Pig Ileum DR with Nor-BNI [5]: 4.24; Guinea Pig Ileum Ke of Nor-BNI [5]: 6.98
25 | [D-Pen^3.5-enkephalin] [DPDPE-OH] | 53.11 | 5.64 | 25.83 | > 1000 nM | > 10000 nM | 4130 nM | Mouse Vas Deferens Ke of Naltrindole [1]: 0.021; Mouse Vas Deferens Ratio (Naltrindole) [1]: 1.000; Guinea Pig Ileum Ratio (CTAP) [2]: 0.980; Guinea Pig Ileum DR with Nor-BNI [5]: 1.54; Guinea Pig Ileum Ke of Nor-BNI [5]: 50.68; Guinea Pig Ileum Ratio (Nor-BNI) [5]: 0.001
26 | O=C1CC[C@@]2(O)[C@H]3Cc4ccc(O)c5c4[C@@]2(CCN3CC2CC2)[C@H]1O5 [Naltrexone-HCl] |  |  |  | 3.8 nM | 230 nM |  | 
27 | Dynorphin A (1-17) |  |  |  |  |  |  | DR with CTAP [2]: 1.52; Ke of CTAP [2]: 209.89; IC50 [3, 14]: 29.3 nM; IC50 [4, 15]: 0.95 nM
28 | Dynorphin (1-17)-OH |  |  |  | 5.1 nM | 29.5 nM |  | 
29 | CCC12CCN(CC3CC3)C(C(=O)c3ccc(O)cc31)C2C (single isomer, unassigned; (+)) [(+)EKC-sulfonate] |  |  |  | 5.3 nM | 133 nM |  | Ki [9]: 1.1 nM; Ki ([8]; read-out: Ki δ, experiment done with [^3H]DPDPE): 2.6 nM

From patent US6403602B1 (priority 1997, dated 2002)
